Test results reported in BindingDB's records for doi:10.1124/mol.58.6.1310 (Pfizer, 2000).

The molecules below were run against Glutamate receptor 3 (Rattus norvegicus, UniProt P19492).
Glutamate receptor 3, sequence (P19492 whole entry): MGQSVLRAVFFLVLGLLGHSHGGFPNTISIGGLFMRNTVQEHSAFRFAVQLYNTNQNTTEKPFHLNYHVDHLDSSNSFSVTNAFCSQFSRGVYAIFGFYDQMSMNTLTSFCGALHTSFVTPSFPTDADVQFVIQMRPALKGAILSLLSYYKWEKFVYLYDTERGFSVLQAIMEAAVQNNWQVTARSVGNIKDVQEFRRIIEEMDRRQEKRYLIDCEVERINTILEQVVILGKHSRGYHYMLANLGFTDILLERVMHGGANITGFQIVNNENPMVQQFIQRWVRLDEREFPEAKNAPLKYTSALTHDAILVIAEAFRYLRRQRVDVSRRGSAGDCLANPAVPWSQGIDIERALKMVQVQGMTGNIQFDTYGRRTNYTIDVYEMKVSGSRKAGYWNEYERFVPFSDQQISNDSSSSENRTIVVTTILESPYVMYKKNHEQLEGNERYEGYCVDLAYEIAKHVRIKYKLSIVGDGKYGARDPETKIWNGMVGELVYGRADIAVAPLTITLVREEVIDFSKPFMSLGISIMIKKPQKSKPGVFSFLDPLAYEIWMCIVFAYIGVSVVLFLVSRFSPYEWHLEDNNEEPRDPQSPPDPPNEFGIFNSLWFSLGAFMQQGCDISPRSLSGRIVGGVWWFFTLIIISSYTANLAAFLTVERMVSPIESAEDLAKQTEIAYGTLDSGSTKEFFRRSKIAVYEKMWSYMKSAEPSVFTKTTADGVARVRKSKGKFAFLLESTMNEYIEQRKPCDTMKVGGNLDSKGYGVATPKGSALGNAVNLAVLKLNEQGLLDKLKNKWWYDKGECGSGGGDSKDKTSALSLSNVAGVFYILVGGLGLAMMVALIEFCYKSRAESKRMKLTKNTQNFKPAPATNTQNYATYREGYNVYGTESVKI

SMILES	Ki [nM]
CC1=NN=C(c2ccc(N)cc2)c2cc3c(cc2C1)OCO3 [GYKI-52466]	> 10000
N#Cc1cccc(/C=C/c2nc3ccc(F)cc3c(=O)n2-c2ccccc2Cl)n1	3

Continued, values first:

Ki [nM]	SMILES
57	Cc1ncccc1-n1c(/C=C/C2CSC(C)N2)nc2ccccc2c1=O (stereo not given) [CP-471236]
25	CCN(CC)Cc1cccc(/C=C/c2nc3ccc(F)cc3c(=O)n2-c2ccccc2Cl)n1 [(R)-3-(2-Chloro-phenyl)-2-[(E)-2-(6-diethylaminomethyl-pyridin-2-yl)-vinyl]-6-fluoro-3H-quinazolin-4-one]
> 10000	Cc1ncccc1-n1c(/C=C/C2CS[C@H](C)N2)nc2ccccc2c1=O (stereo not given in full) [CP-471237]
